Patent US20080255186A1, “Pyrazolo[3,4-B]Pyridine Compound, and Its Use as a Pde4 Inhibitor” (priority 2005, published 2008)
Like-named read-outs stand apart in the source and are kept apart here.

Key:
[1] = tested on: TNF-α (TNF-alpha) production in Human Whole Blood; assay: Inhibition of TNF-alpha production in Human Whole Blood (IGEN assay); type: cell-based
Procedure: This is an optional supplementary test, e.g. for potentially orally-administrable PDE4 inhibitors. Also, as the assay may measure the effect of PDE4 inhibitors after loss by protein binding, it might possibly also be relevant to externally-topically-administrable PDE4 inhibitors as protein-binding-loss of compound is possible during transport through the skin.
Test compounds are prepared as a ca. 10 mM stock solution in DMSO and a dilution series prepared in DMSO with 8 successive 3-fold dilutions, either directly from the 10 mM stock solution or from a more dilute solution in DMSO. The compound is added to assay plates using a Biomek Fx liquid handling robot.
Heparinised blood drawn from normal volunteers is dispensed (ca. 100 μl=ca. 100 ul) into microtitre plate wells containing ca. 0.5 or ca. 1.0 μl (ul, microlitres) of an appropriately diluted test compound solution. […] Plasma TNFα content is determined by electrochemiluminescence assay using the MSD technology (see below), the IGEN technology (see below) or by enzyme linked immunosorbant assay (ELISA) (see below).
Ca. […] 50 μl (ul) of streptavidin/biotinylated anti-TNF-α antibody mix, ca. 25 μl ruthenium tagged anti-TNF-α monoclonal and ca. 100 μl PBS containing 0.1% bovine serum albumin are added to each well and the plates are sealed and shaken for ca. 2 hours before being read on an IGEN instrument.

[2] = molecular target: PDE5 (human recombinant) (Homo sapiens, UniProt O76074); assay: PDE5 inhibition (FP or SPA general type of assay); type: biochemical; conditions: in the particular assays used
Excerpt: Human recombinant PDE5 is disclosed in K. Loughney et al., “Isolation and characterisation of cDNAs encoding PDE5A, a human cGMP-binding, cGMP-specific 3′,5′-cyclic nucleotide phosphodiesterase”, Gene, 1998, 216, 139-147.
The ability of compounds to inhibit catalytic activity at PDE4B or 4D (human recombinant), PDE3 (from bovine aorta), PDE5 (human recombinant) or PDE6 (from bovine retina) can optionally be determined by Scintillation Proximity Assay (SPA) in a 96-well format.
Test compounds (as a solution in DMSO, suitably about 2 microlitre (ul) volume of DMSO solution) are preincubated at ambient temperature (room temperature, e.g. 19-23° C.) in Wallac Isoplates (code 1450-514) with PDE enzyme in 50 mM Tris-HCl buffer pH 7.5, 8.3 mM MgCl2, 1.7 mM EGTA, 0.05% (w/v) bovine serum albumin for 10-30 minutes (usually 30 minutes). […] Bound radioactive product is measured using a WALLAC TRILUX 1450 Microbeta scintillation counter. […] Curves are analysed using ActivityBase and XLfit (ID Business Solutions Limited, 2 Ocean Court, Surrey Research Park, Guildford, Surrey GU2 7QB, United Kingdom). Results are expressed as pIC50 values.
The compound of the invention (e.g. as prepared in Example 1) has also been tested for PDE3, PDE5 and PDE6 inhibition, e.g. using (independently for each PDE type) either a Fluorescence Polarisation (FP) general type of assay or using an SPA general type of assay.

IC50 ([1]; n = about 4, LPS-stimulated, read-out: Whole Blood, Mean pIC50 (IGEN assay) (converted)): ~2 nM
IC50 ([1]; range of individual measurements, read-out: Whole Blood individual pIC50 test values, range (IGEN assay) (converted)): 1.26 to 2.63 nM
Structure (SMILES): CCc1nc2c(cnn2CC)c(NC2CCOCC2)c1CNC(=O)c1cc(C)no1 [Example 1, N-{[1,6-diethyl-4-(tetrahydro-2H-pyran-4-ylamino)-1H-pyrazolo[3,4-b]pyridin-5-yl]methyl}-3-methyl-5-isoxazolecarboxamide]
PDE4B pIC50 compared with PDE5 pIC50 (selectivity) [2]: inhibits PDE4B more strongly than it inhibits PDE3, PDE5 and PDE6
